According to PubChem BioAssay AID256 (DTP/NCI, 2004):
“And” between values parts separate entries of the source, which are not always exact repeats. Equal values may be shown once. Toxic doses and inconclusive results are not listed.

Test system: CD2F1 mice, L1210 leukemia ip, survival T/C
Test: NCI In Vivo Anticancer Drug Screen. Data for tumor model L1210 Leukemia (intraperitoneal) in CD2F1 (CDF1) mice
Settings: higher = longer survival
In short: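 In this screen, transplantable tumors were grown in mice given either the compound or its vehicle. Results were expressed as the treated measurement relative to the control measurement.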

[1] = endpoint: mean survival time, dose: 100.0 mg/kg/injection, schedule: Q01DX001 (ip), vehicle: saline with Tween-80
[2] = endpoint: mean survival time, dose: 100.0 mg/kg/injection, schedule: Q01DX009 (ip), vehicle: saline with Tween-80
[3] = endpoint: mean survival time, dose: 200.0 mg/kg/injection, schedule: Q01DX001 (ip), vehicle: saline with Tween-80
[4] = endpoint: mean survival time, dose: 200.0 mg/kg/injection, schedule: Q01DX009 (ip), vehicle: saline with Tween-80
[5] = endpoint: mean survival time, dose: 400.0 mg/kg/injection, schedule: Q01DX001 (ip), vehicle: saline with Tween-80
[6] = endpoint: mean survival time, dose: 400.0 mg/kg/injection, schedule: Q01DX009 (ip), vehicle: saline with Tween-80
[7] = endpoint: mean survival time, dose: 100.0 mg/kg/injection, schedule: Q04DX003 (ip), vehicle: saline with Tween-80
[8] = endpoint: mean survival time, dose: 200.0 mg/kg/injection, schedule: Q04DX003 (ip), vehicle: saline with Tween-80
[9] = endpoint: mean survival time, dose: 400.0 mg/kg/injection, schedule: Q04DX003 (ip), vehicle: saline with Tween-80
[10] = endpoint: mean survival time, dose: 75.0 mg/kg/injection, schedule: Q01DX001 (ip), vehicle: saline
[11] = endpoint: mean survival time, dose: 150.0 mg/kg/injection, schedule: Q01DX001 (ip), vehicle: saline
[12] = endpoint: mean survival time, dose: 300.0 mg/kg/injection, schedule: Q01DX001 (ip), vehicle: saline
[13] = endpoint: mean survival time, dose: 3.13 mg/kg/injection, schedule: Q04DX003 (ip), vehicle: water
[14] = endpoint: mean survival time, dose: 6.25 mg/kg/injection, schedule: Q04DX003 (ip), vehicle: water
[15] = endpoint: mean survival time, dose: 12.5 mg/kg/injection, schedule: Q04DX003 (ip), vehicle: water
[16] = endpoint: mean survival time, dose: 25.0 mg/kg/injection, schedule: Q04DX003 (ip), vehicle: water
[17] = endpoint: mean survival time, dose: 100.0 mg/kg/injection, schedule: Q04DX002 (ip), vehicle: saline with Tween-80
[18] = endpoint: mean survival time, dose: 200.0 mg/kg/injection, schedule: Q04DX002 (ip), vehicle: saline with Tween-80

In the case of CC1=C(C)CS(=O)(=O)N(c2ccccc2)C1, the T/C [1] is reported as 101 % of control, the T/C [2] is reported as 98 % of control and the T/C [3] is reported as 98 % of control. The T/C [4] was 95 % of control, the T/C [5] was 86 % of control and the T/C [6] was 95 % of control.

For CN=C1C=C(NC)C(F)(F)C1(F)F, the T/C (endpoint: mean survival time, dose: 6.25 mg/kg/injection, schedule: Q04DX003 (ip), vehicle: saline) was 98 % of control, the T/C (endpoint: mean survival time, dose: 12.5 mg/kg/injection, schedule: Q04DX003 (ip), vehicle: saline) was 101 % of control and the T/C (endpoint: mean survival time, dose: 25.0 mg/kg/injection, schedule: Q04DX003 (ip), vehicle: saline) was 101 % of control.

With NC(=O)CC(NC(=O)CCl)C(=O)O (configuration not stated) the T/C [7] was 101 % of control, the T/C [8] was 92 % of control and the T/C [9] was 92 % of control.

O=C1NC(=O)/C(=C/c2ccccc2)N1 was tested, and the T/C (endpoint: mean survival time, dose: 75.0 mg/kg/injection, schedule: Q04DX003 (ip), vehicle: saline sonified) was 100 % of control, the T/C (endpoint: mean survival time, dose: 150.0 mg/kg/injection, schedule: Q04DX003 (ip), vehicle: saline sonified) was 105 % of control and the T/C (endpoint: mean survival time, dose: 300.0 mg/kg/injection, schedule: Q04DX003 (ip), vehicle: saline sonified) was 105 % of control.

With Cn1c(-c2ccc(/C=N\N3CCN(/N=C/c4ccc(-c5c[n+]6ccsc6n5C)cc4)CC3)cc2)c[n+]2ccsc12 the T/C (endpoint: median survival time, dose: 0.75 mg/kg/injection, schedule: Q01DX005 (ip), vehicle: saline with Tween-80) was 113 % of control, the T/C (endpoint: median survival time, dose: 1.5 mg/kg/injection, schedule: Q01DX005 (ip), vehicle: saline with Tween-80) was 115 % of control and the T/C (endpoint: median survival time, dose: 3.0 mg/kg/injection, schedule: Q01DX005 (ip), vehicle: saline with Tween-80) was 116 % of control.

In the case of O=C(O)c1cccc(C(=O)O)c1C(=O)O.[NH-]C1CCCCC1[NH-].[Pt+2], the T/C (endpoint: median survival time, dose: 3.12 mg/kg/injection, schedule: Q04DX003 (ip), vehicle: saline) is reported as 102 % of control and 109 % of control, the T/C (endpoint: median survival time, dose: 6.25 mg/kg/injection, schedule: Q04DX003 (ip), vehicle: saline) is reported as 114 % of control and 103 % of control and the T/C (endpoint: median survival time, dose: 12.5 mg/kg/injection, schedule: Q04DX003 (ip), vehicle: saline) is reported as 115 % of control and 108 % of control. The T/C (endpoint: median survival time, dose: 25.0 mg/kg/injection, schedule: Q04DX003 (ip), vehicle: saline) was 117 % of control, the T/C (endpoint: median survival time, dose: 50.0 mg/kg/injection, schedule: Q04DX003 (ip), vehicle: saline) was 152 % of control and the T/C (endpoint: median survival time, dose: 100.0 mg/kg/injection, schedule: Q04DX003 (ip), vehicle: saline) was 178 % of control and 197 % of control. The T/C (endpoint: median survival time, dose: 200.0 mg/kg/injection, schedule: Q04DX003 (ip), vehicle: saline) was 282 % of control and 375 % of control.

For Cc1ncc2c(n1)NC(c1ccc(Cl)cc1Cl)NC2 (configuration not stated), the T/C [10] was 101 % of control, the T/C [11] was 105 % of control and the T/C [12] was 101 % of control.

For CCOP(=O)(OCC)C1=C(CC)CC1, the T/C (endpoint: mean survival time, dose: 75.0 mg/kg/injection, schedule: Q01DX001 (ip), vehicle: other) was 98 % of control.

CCN(CC)Cc1ccc([NH-])c([NH-])c1.CCN(CC)Cc1ccc([NH-])c([NH-])c1.[Cl][Pt+2][Cl].[Cl][Pt+2][Cl].[Cl][Pt+2][Cl] was tested, and the T/C [13] was 103 % of control, the T/C [14] was 108 % of control and the T/C [15] was 110 % of control. For the same molecule, the T/C [16] was 119 % of control and the T/C (endpoint: mean survival time, dose: 50.0 mg/kg/injection, schedule: Q04DX003 (ip), vehicle: water) was 89 % of control.

In the case of CC(C)(C)OC1C2C=CC1C=C2 (configuration not stated), the T/C [1] is reported as 100 % of control, the T/C [3] is reported as 91 % of control and the T/C [5] is reported as 88 % of control.

For O=S(=O)(O)O.[NH-]C(c1ccccc1)C([NH-])c1ccccc1.[Pt+2] (configuration not stated), the T/C (endpoint: mean survival time, dose: 12.5 mg/kg/injection, schedule: Q04DX003 (ip), vehicle: saline with Tween-80) was 192 % of control and the T/C (endpoint: mean survival time, dose: 25.0 mg/kg/injection, schedule: Q04DX003 (ip), vehicle: saline with Tween-80) was 234 % of control and 197 % of control.

CCCC/C=C\C(=O)OCC was tested, and the T/C (endpoint: mean survival time, dose: 50.0 mg/kg/injection, schedule: Q01DX009 (ip), vehicle: saline with Tween-80) was 104 % of control, the T/C [2] was 101 % of control and the T/C [4] was 104 % of control.

For CC(=O)CC(=O)C1CCC(C(=O)CC(C)=O)CC1 (configuration not stated), the T/C [7] was 95 % of control and the T/C [8] was 91 % of control.

With O=c1c2cccc3cccc(c32)c2cc(-c3ccccc3)nn12 the T/C (endpoint: mean survival time, dose: 25.0 mg/kg/injection, schedule: Q04DX002 (ip), vehicle: saline with Tween-80) was 100 % of control, the T/C (endpoint: mean survival time, dose: 50.0 mg/kg/injection, schedule: Q04DX002 (ip), vehicle: saline with Tween-80) was 92 % of control and the T/C [17] was 96 % of control. The T/C [18] was 103 % of control.

COC12C(COC(=O)NCCO)C3=C(C(=O)C(C)=C(N)C3=O)N1CC1NC12 (configuration not stated) was tested, and the T/C (endpoint: mean survival time, dose: 1.56 mg/kg/injection, schedule: Q01DX009 (ip), vehicle: Klucel (hydroxypropylcellulose) (HPC)) was 112 % of control, the T/C (endpoint: mean survival time, dose: 3.12 mg/kg/injection, schedule: Q01DX009 (ip), vehicle: Klucel (hydroxypropylcellulose) (HPC)) was 114 % of control and 106 % of control and the T/C (endpoint: mean survival time, dose: 6.25 mg/kg/injection, schedule: Q01DX009 (ip), vehicle: Klucel (hydroxypropylcellulose) (HPC)) was 115 % of control and 120 % of control. The T/C (endpoint: mean survival time, dose: 12.5 mg/kg/injection, schedule: Q01DX009 (ip), vehicle: Klucel (hydroxypropylcellulose) (HPC)) was 115 % of control, the T/C (endpoint: mean survival time, dose: 50.0 mg/kg/injection, schedule: Q01DX009 (ip), vehicle: Klucel (hydroxypropylcellulose) (HPC)) was 114 % of control and the T/C (endpoint: mean survival time, dose: 222.0 mg/kg/injection, schedule: Q01DX001 (ip), vehicle: carboxymethylcellulose (CMC)) was 89 % of control.

For Cc1cc(N)ccc1N(c1c(Cl)c(Cl)c(NS(=O)(=O)c2ccccc2)c(Cl)c1Cl)S(=O)(=O)c1ccccc1, the T/C (endpoint: mean survival time, dose: 100.0 mg/kg/injection, schedule: Q04DX003 (ip), vehicle: Klucel (hydroxypropylcellulose) (HPC)) was 95 % of control, the T/C (endpoint: mean survival time, dose: 200.0 mg/kg/injection, schedule: Q04DX003 (ip), vehicle: Klucel (hydroxypropylcellulose) (HPC)) was 95 % of control and the T/C (endpoint: mean survival time, dose: 400.0 mg/kg/injection, schedule: Q04DX003 (ip), vehicle: Klucel (hydroxypropylcellulose) (HPC)) was 95 % of control.

For [Cl][Pt+2][Cl].[NH-]c1ccc(CC(=O)O)cc1[NH-], the T/C [13] was 103 % of control, the T/C [14] was 105 % of control and the T/C [15] was 101 % of control. For the same molecule, the T/C [16] was 116 % of control.

CCOc1ccc(-n2c(O)c(N=Nc3ccccc3OC)c(=O)n(-c3ccccc3)c2=S)cc1 was tested, and the T/C [1] was 93 % of control and the T/C [3] was 91 % of control.

NC(=S)N/N=C/c1ccc(I)cn1 was tested, and the T/C [17] was 93 % of control, the T/C [18] was 93 % of control and the T/C (endpoint: mean survival time, dose: 400.0 mg/kg/injection, schedule: Q04DX002 (ip), vehicle: saline with Tween-80) was 93 % of control.

For O=S1(=O)CC2(OCCO2)C1Cl (configuration not stated), the T/C [17] was 95 % of control and the T/C [18] was 91 % of control.

With CCCCCC(C)NCCOC(=O)c1ccccc1 (configuration not stated) the T/C [10] was 103 % of control, the T/C [11] was 100 % of control and the T/C [12] was 108 % of control.

For CCCCCCCCCCCCC(=O)OC, the T/C [2] was 107 % of control, the T/C [4] was 106 % of control and the T/C [6] was 105 % of control.

For CCOC(=O)COc1c(C(C)(C)C)cc([N+](=O)[O-])c(C)c1[N+](=O)[O-], the T/C [1] was 105 % of control, the T/C [3] was 111 % of control and the T/C [5] was 96 % of control.

C[n+]1cccc(NC(=O)c2ccc(NC(=O)c3ccc(C(=O)Nc4ccc(NC(=N)N)cc4)cc3)cc2)c1 was tested, and the T/C (endpoint: mean survival time, dose: 1.3 mg/kg/injection, schedule: Q01DX009 (ip), vehicle: saline) was 173 % of control, the T/C (endpoint: mean survival time, dose: 2.0 mg/kg/injection, schedule: Q01DX009 (ip), vehicle: saline) was 307 % of control and the T/C (endpoint: mean survival time, dose: 3.0 mg/kg/injection, schedule: Q01DX009 (ip), vehicle: saline) was 259 % of control. For the same molecule, the T/C (endpoint: mean survival time, dose: 8.0 mg/kg/injection, schedule: Q01DX009 (ip), vehicle: saline) was 115 % of control, the T/C (endpoint: mean survival time, dose: 12.0 mg/kg/injection, schedule: Q01DX009 (ip), vehicle: saline) was 112 % of control and the T/C (endpoint: mean survival time, dose: 18.0 mg/kg/injection, schedule: Q01DX009 (ip), vehicle: saline) was 97 % of control.

C/C=C/C(=O)Nc1ccc(Cl)c(Cl)c1 was tested, and the T/C (endpoint: mean survival time, dose: 25.0 mg/kg/injection, schedule: Q01DX001 (ip), vehicle: saline with Tween-80) was 102 % of control, the T/C (endpoint: mean survival time, dose: 50.0 mg/kg/injection, schedule: Q01DX001 (ip), vehicle: saline with Tween-80) was 101 % of control and the T/C [1] was 95 % of control.

ICC1COC(CI)CO1 (configuration not stated) was tested, and the T/C [2] was 102 % of control, the T/C [7] was 105 % of control and the T/C [4] was 96 % of control. For the same molecule, the T/C [8] was 110 % of control, the T/C [6] was 100 % of control and the T/C [9] was 100 % of control.
